This note sets out measurements from patent US11524960B2, “Heterobicyclic inhibitors of MAT2A and methods of use for treating cancer” (AGIOS PHARMACEUTICALS, INC., priority 2018, dated 2022).

pIC50: −log10 of the molar value. Bounds are passed on as bounds.

In one test the test system is HCT116 MTAP+/+. Nature of the test: Inhibition of cellular proliferation (Cell Titer Glo), HCT116 MTAP+/+. The class given is cell-based, human. The following applies: Homo sapiens, HCT-116, 96 h, 4 days, IC50 score, read-out: 4 Day Relative Growth Inhibition (MTAP +/+; Example 277). The method, then: (§1) Test compound impact on cancer cell growth was assessed by treating cancer cells with compound for 4 days and then measuring proliferation using an ATP-based cell proliferation readout (Cell Titer Glo, Promega Corporation).
(§2) In a typical assay an isogenic pair of HCT116 human colon carcinoma cell lines which vary only in MTAP deletion status (HCT116 MTAP+/+ and HCT116 MTAP−/−) were plated in 96-well dishes at appropriate cell density. Following 24 hours, cells were then treated with the candidate MAT2A inhibitor. Prior to addition to cells, the compound was first serially diluted in 100% DMSO, typically as a 3-fold serial dilution starting at 500× top dose with 10 dose points including DMSO only control. Compound was then transferred to a working stock plate in cell culture media by adding 5 μl of compound in DMSO to 495 μl of cell culture media. This working stock was then added to cells via a further 5-fold dilution, by adding 25 μl of working stock to 100 μl of cells in culture media. Following compound addition, cells were incubated at 37° C./5% C02 for 4 days.
(§3) To measure inhibition of cellular proliferation, cells were allowed to equilibrate to room temperature for 30 minutes, and were then treated with 125 μl of Cell Titer Glo reagent. The plate was then covered with aluminum foil and shaken for 15 minutes to ensure complete mixing and full cell lysis. Luminescent signal was then measured using a plate-based luminometer Veritas version 1.9.2 using ATP standard curve to confirm assay reproducibility from run to run. This luminescence measure was converted to a proliferation index by subtracting from each data point the ATP luminescence signal measured from a bank (no cells) well and dividing by the ATP luminescence signal measured in 0.2% DMSO control well adjusted for signal in blank well. Compound activity was then represented as a percentage change in proliferation relative to a within-plate DMSO control against log10 of compound concentration in molar (M) units.

In another test the target is T1, MAT2A homodimer (Homo sapiens, UniProt P31153).
T1 construct: inferred from Ni sepharose purification and imidazole elution; made in house; host or cells: Sf9 insect cells, recombinant baculovirus (Bac to Bac, pFASTBAC1)
The test is described as follows: Biochemical assay: inhibition of MAT2A (phosphate release, PiColorLock Gold). The following applies: MAT2A IC50 score; read-out: Enzyme Inhibition (Example 275). Put shortly:
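Baculovirus/Sf9-expressed, Ni-purified MAT2A at 4 µg/mL was preincubated with compound for 60 min at 25 °C in 50 mM Tris pH 8.0, 50 mM KCl, 15 mM MgCl2, 0.3 mM EDTA, 0.005% BSA. Substrate mix (500 μM ATP, 400 μM L-methionine) was added and the reaction ran 60 min at 25 °C. Phosphate released stoichiometrically with SAM was measured colorimetrically against a phosphate standard curve.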

Test [1] relates to SAM in HCT116 human colon carcinoma cell line engineered to delete the MTAP gene (MTAP −/−). The test is described as follows: Cellular assay of target engagement (SAM) by LC-MS/MS. The following applies: Homo sapiens, HCT-116, 72 h, IC50 score, read-out: Cell 72 h SAM Inhibition (MTAP −/−; Example 276). Format: cell-based. The method, then:
Measurement of MAT2A activity in cells was made by direct quantitation of the abundance of the product of its enzymatic activity, SAM. Cancer cells were treated with candidate MAT2A inhibitors for a suitable incubation period, and the cells were then lysed using a reagent which quenched any further enzyme activity. Soluble metabolites including SAM were collected and SAM itself was directly measured from the lysate using quantitative LC-MS/MS.
A typical assay was performed using an HCT116 human colon carcinoma cell line which was genetically engineered to delete the MTAP gene (commercially available from Horizon Discovery). This cell line was utilized because it was determined that loss of the MTAP gene predicts sensitivity to MAT2A inhibitors. Cells were plated in 96-well dishes at appropriate cell density. Following 24 hours, cells were then treated with the candidate MAT2A inhibitor. Prior to addition to cells, the compound was first serially diluted in 100% DMSO, typically as a 3-fold serial dilution starting at 500× top dose with 10 dose points including DMSO only control. Compound was then transferred to a working stock plate in cell culture media by adding 5 μl of compound in DMSO to 495 μl of cell culture media. This working stock was then added to cells via a further 5-fold dilution, by adding 25 μl of working stock to 100 μl of cells in culture media. Following compound addition, cells were incubated at 37° C./5% CO2 for 72 hrs.
To quantitate SAM levels following compound treatment, cells were gently washed once in Ammonium Carbonate buffer (75 mM at pH 7.4), placed on dry ice, and lysed with metabolite extraction buffer (80% cold methanol and 20% water (v/v) with acetic acid at 1 M final concentration with 200 ng/mL deuterated d3-SAM as internal control). Following centrifugation at 4° C. at 3,200 rpm for 30 minutes, the supernatant was collected and stored at −80° C. until analysis by Liquid Chromatography with tandem Mass Spectrometry (LC-MS/MS). LC-MS/MS analysis was performed using an API6500 Mass Spectrometer (Sciex, Framingham, Mass., USA) operating in positive ion spray mode and equipped with a Waters UPLC Acquity (Waters, Milford, Mass., USA) BEH Amide column. Multiple Reaction Monitoring data was acquired for SAM and the d3-SAM standard, using a mass transition pair at m/z 399.2→250.1 and 402.2→250.1, respectively. In a typical LC-MS/MS analysis, the initial flow rate was 0.5 ml/min of 25% mobile phase A (acetonitrile and water at 5:95 (v/v) with 1% formic acid and 10 mM ammonium acetate) and 75% mobile phase B (acetonitrile and water at 95:5 (v/v) with 1% formic acid and 10 mM ammonium acetate), 0.2-0.5 minutes with 75%-35% mobile phase B, 25%-65% mobile phase A, at 0.5 min 65% mobile phase A and 35% mobile phase B, 1.0-1.1 minutes with 35%-75% mobile phase B, 65%-25% mobile phase A, at 1.1 min 25% mobile phase A and 75% mobile phase B with a total run time of 1.5 minutes.

A further test deals with HCT116 MTAP−/−. Nature of the test: Inhibition of cellular proliferation (Cell Titer Glo), HCT116 MTAP−/−. The class given is cell-based, human. The following applies: Homo sapiens, HCT-116, 96 h, 4 days, IC50 score, read-out: 4 Day Relative Growth Inhibition (MTAP −/−; Example 277). On the procedure:
as §1, §2, §3

T1 sequence (P31153 whole entry): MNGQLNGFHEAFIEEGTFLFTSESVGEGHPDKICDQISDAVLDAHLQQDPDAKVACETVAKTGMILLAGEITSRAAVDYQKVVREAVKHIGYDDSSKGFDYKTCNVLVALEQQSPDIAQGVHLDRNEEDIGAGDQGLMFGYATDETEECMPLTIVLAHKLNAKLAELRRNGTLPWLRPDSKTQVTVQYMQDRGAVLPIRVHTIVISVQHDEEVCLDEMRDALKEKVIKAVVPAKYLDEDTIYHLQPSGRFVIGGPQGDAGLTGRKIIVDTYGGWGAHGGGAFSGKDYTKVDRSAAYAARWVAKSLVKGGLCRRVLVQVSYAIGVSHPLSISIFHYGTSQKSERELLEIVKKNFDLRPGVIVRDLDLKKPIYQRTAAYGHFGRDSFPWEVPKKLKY

In the case of `Cn1cc(-n2cc3cnc(NCC(F)(F)F)nc3c(-c3ccc(OC(F)F)cc3)c2=O)ccc1=O` [Example 155, 8-(4-(difluoromethoxy)phenyl)-6-(1-methyl-6-oxo-1,6-dihydropyridin-3-yl)-2-((2,2,2-trifluoroethyl)amino)pyrido[4,3-d]pyrimidin-7(6H)-one], the pIC50 in the test with HCT116 MTAP+/+ was 5.00 to 7.00; at MAT2A homodimer it was over 7.00; in test [1], 6.00 to 7.00; with HCT116 MTAP−/−, 5.00 to 7.00.
Take `Cn1cc2cc(-n3cc4ncc(OCC(F)F)nc4c(-c4ccc(OC(F)F)cc4)c3=O)ccc2n1` [Example 139-A, 2-(2,2-difluoroethoxy)-8-(4-(difluoromethoxy)phenyl)-6-(2-methyl-2H-indazol-5-yl)pyrido[3,4-b]pyrazin-7(6H)-one]: the pIC50 with HCT116 MTAP+/+ is 5.00 to 7.00; at MAT2A homodimer it was over 7.00; in test [1] it was over 7.00; in the test with HCT116 MTAP−/−, over 7.00.
Consider `CCOc1ncc2cn(-c3ccc4ncn(C)c4c3)c(=O)c(-c3ccc(Cl)cc3)c2n1` [Example 269, 8-(4-chlorophenyl)-2-ethoxy-6-(1-methyl-1H-benzo[d]imidazol-6-yl)pyrido[4,3-d]pyrimidin-7(6H)-one], for which the pIC50 was under 5.00 in the test on HCT116 MTAP+/+, over 7.00 on MAT2A homodimer, over 7.00 in test [1] and 5.00 to 7.00 in the test with HCT116 MTAP−/−.
Take `CCOc1ncc2cn(-c3ccc4nn(C)cc4c3)c(=O)c(-c3ccc(OC(F)F)cc3)c2n1` [Example 272, 8-(4-(difluoromethoxy)phenyl)-2-ethoxy-6-(2-methyl-2H-indazol-5-yl)pyrido[4,3-d]pyrimidin-7(6H)-one]: the pIC50 in the test with HCT116 MTAP+/+ was under 5.00; on MAT2A homodimer, over 7.00; in test [1] it was over 7.00; in the test with HCT116 MTAP−/− it was 5.00 to 7.00.
With `Cn1cc2cc(-n3cc4ccc(OCC(F)(F)F)nc4c(-c4ccc(OC(F)F)cc4)c3=O)ccc2n1` [Example 256, 8-(4-(difluoromethoxy)phenyl)-6-(2-methyl-2H-indazol-5-yl)-2-(2,2,2-trifluoroethoxy)-1,6-naphthyridin-7(6H)-one], the pIC50 in the test with HCT116 MTAP+/+ was 5.00 to 7.00; on MAT2A homodimer, over 7.00; in test [1] it was over 7.00; with HCT116 MTAP−/−, 5.00 to 7.00.
Regarding `CCSc1ccc2cn(-c3ccc4nn(C)cc4c3)c(=O)c(-c3ccc(Cl)cc3)c2n1` [Example 259, 8-(4-chlorophenyl)-2-(ethylthio)-6-(2-methyl-2H-indazol-5-yl)-1,6-naphthyridin-7(6H)-one], the pIC50 in the test on HCT116 MTAP+/+ is under 5.00; on MAT2A homodimer, over 7.00; in test [1] it was over 7.00; in the test on HCT116 MTAP−/− it was over 7.00.
Consider `Cn1cc2cc(-n3cc4cnc(NCC(F)(F)F)nc4c(-c4ccc(OC(F)(F)F)cc4)c3=O)ccc2n1` [Example 160, 6-(2-methyl-2H-indazol-5-yl)-2-((2,2,2-trifluoroethyl)amino)-8-(4-(trifluoromethoxy)phenyl)pyrido[4,3-d]pyrimidin-7(6H)-one], for which the pIC50 in the test with HCT116 MTAP+/+ is under 5.00; on MAT2A homodimer, over 7.00; in test [1], over 7.00; in the test with HCT116 MTAP−/− it was over 7.00.
In the case of `COc1ccc(-n2cc3cnc(NCC(F)(F)F)nc3c(-c3ccc(Br)cc3)c2=O)cc1` [Example 192, 8-(4-bromophenyl)-6-(4-methoxyphenyl)-2-((2,2,2-trifluoroethyl)amino)pyrido[4,3-d]pyrimidin-7(6H)-one], the pIC50 with HCT116 MTAP+/+ was under 5.00; at MAT2A homodimer, over 7.00; in test [1] it was over 7.00; with HCT116 MTAP−/−, 5.00 to 7.00.
As to `Cn1cc2cc(-n3cc4cnc(NC5CC5)nc4c(-c4ccc(OC(F)F)cc4)c3=O)ccc2n1` [Example 172, 2-(cyclopropylamino)-8-(4-(difluoromethoxy)phenyl)-6-(2-methyl-2H-indazol-5-yl)pyrido[4,3-d]pyrimidin-7(6H)-one], the pIC50 with HCT116 MTAP+/+ is under 5.00; on MAT2A homodimer, over 7.00; in test [1] it was over 7.00; in the test on HCT116 MTAP−/− it was over 7.00.
